Consider 17 compounds from ChEMBL document CHEMBL1124359, “Quantitative structure-activity relationships in dihydropteroate synthase inhibition by multisubstituted sulfones. Design and synthesis of some new derivatives with improved potency” (J Med Chem, 1989).

Several values for one entry are separate records, joined by “and”; a condition that tells them apart may be missing. Equal values may be shown once.

Assay [1] has as its system Escherichia coli. Kind of assay: Inhibitory activity (apE=log(1/EII50)) against dihydropteroate synthase from Escherichia coli.
Assay [2] concerns Escherichia coli. Nature of the assay: Inhibitory activity (Enzyme inhibition index) against dihydropteroate synthase from Escherichia coli.

Consider `COc1cc(C)cc(C)c1S(=O)(=O)c1ccc(N)cc1`, for which the apE in the assay with Escherichia coli [1] is -0.48. The same compound registered an EII50 with Escherichia coli [2] of 3.02. On to `Nc1ccc(S(=O)(=O)c2c(Cl)cc(Cl)cc2Cl)cc1`, for which the apE with Escherichia coli [1] was -0.52. The same compound yielded an EII50 in the assay on Escherichia coli [2] of 3.31. As for `Nc1ccc(S(=O)(=O)c2ccc(O)cc2O)cc1`, the apE with Escherichia coli [1] was 0.29 and 0.15. In the assay on Escherichia coli [2], the EII50 is 0.51 and 0.71. With `Nc1ccc(S(=O)(=O)c2ccc(N)cc2N)cc1`, in the assay on Escherichia coli [1], the apE is -0.2. The compound also came in with an EII50 in the assay on Escherichia coli [2] of 1.59. `Nc1ccc(S(=O)(=O)c2ccc(Cl)cc2Cl)cc1` had an apE in the assay with Escherichia coli [1] of -0.35. In addition, the EII50 with Escherichia coli [2] amounted to 2.24. As to `Nc1ccc(S(=O)(=O)c2c(O)cc(O)cc2O)cc1`, in the assay with Escherichia coli [2], the EII50 was 1.91 and 1.46. Turning to `COc1cc(C)c(S(=O)(=O)c2ccc(N)cc2)c(C)c1`, the apE in the assay on Escherichia coli [1] was -0.25. For the same compound, in the assay on Escherichia coli [2], the EII50 was 1.77. `COc1ccc(S(=O)(=O)c2ccc(N)cc2)c(C)c1` had an apE in the assay on Escherichia coli [1] of -0.25. For the same compound, the EII50 in the assay on Escherichia coli [2] turned out to be 1.77. `COc1cc(OC)c(S(=O)(=O)c2ccc(N)cc2)c(OC)c1` yielded an apE in the assay with Escherichia coli [1] of -1.11. The EII50 with Escherichia coli [2] came to 12.9. In the assay with Escherichia coli [1], `Nc1ccc(S(=O)(=O)c2ccc(N)cc2)cc1` yielded an apE of -0.42. The same compound displayed an EII50 in the assay on Escherichia coli [2] of 2.64. For `Cc1cc(O)ccc1S(=O)(=O)c1ccc(N)cc1`, in the assay with Escherichia coli [1], the apE was 0.66 and 0.47. Moreover, in the assay with Escherichia coli [2], the EII50 was 0.23 and 0.34. The compound `Nc1ccc(S(=O)(=O)c2ccc([N+](=O)[O-])cc2[N+](=O)[O-])cc1` came in with an apE with Escherichia coli [1] of -1.56. In the assay on Escherichia coli [2], the EII50 is 36.3. In the case of `Nc1ccc(S(=O)(=O)c2ccc(O)cc2Cl)cc1`, the apE in the assay on Escherichia coli [1] is 0.59 and 0.58. The compound further came in with an EII50 in the assay with Escherichia coli [2] of 0.26.

`Cc1ccc(S(=O)(=O)c2ccc(N)cc2)c(C)c1`: in the assay with Escherichia coli [1], the apE is -0.28. The EII50 in the assay on Escherichia coli [2] worked out at 1.89.

`COc1ccc(S(=O)(=O)c2ccc(N)cc2)c(OC)c1` registered an apE in the assay with Escherichia coli [1] of -0.51. In addition, the EII50 in the assay on Escherichia coli [2] stood at 3.21. Compound `Cc1cc(C)c(S(=O)(=O)c2ccc(N)cc2)c(C)c1` displayed an apE in the assay on Escherichia coli [1] of -0.23. In addition, the EII50 in the assay on Escherichia coli [2] came to 1.69. As to `Cc1cc(O)cc(C)c1S(=O)(=O)c1ccc(N)cc1`, the apE in the assay with Escherichia coli [1] was 0.29 and 0.59. The EII50 in the assay with Escherichia coli [2] was 0.51 and 0.25.
